From ChEMBL document CHEMBL1201862, “PubChem BioAssay data set” (2004)
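96-well plates; 48 h exposure; 5 concentrations. Endpoints by linear interpolation between flanking doses. Not reached: highest tested concentration assigned. GI50: concentration for 50% inhibition of growth.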 The source made the active and inactive calls. Cut-off read from the data, not from the text of the source: active = GI50 up to about 1.1 µM and inactive = higher.

Experiments:
Assay in all cases: NCI anticancer screen, dose series, 48 h
A549 = tested on: A549
HOP-92 = tested on: HOP-92
SN12C = tested on: SN12C
SK-MEL-28 = tested on: SK-MEL-28
UACC-257 = tested on: UACC-257
A498 = tested on: A498
SNB-75 = tested on: SNB-75
SK-MEL-2 = tested on: SK-MEL-2
HCT-116 = tested on: HCT-116
U-251 = tested on: U-251
OVCAR-4 = tested on: OVCAR-4
OVCAR-3 = tested on: OVCAR-3
OVCAR-5 = tested on: OVCAR-5
SNB-19 = tested on: SNB-19

Row | Structure (SMILES) | GI50 (A549) | GI50 (HOP-92) | GI50 (SN12C) | GI50 (SK-MEL-28) | GI50 (UACC-257) | GI50 (A498) | GI50 (SNB-75) | GI50 (SK-MEL-2) | GI50 (HCT-116) | GI50 (U-251) | GI50 (OVCAR-4) | GI50 (OVCAR-3) | GI50 (OVCAR-5) | GI50 (SNB-19)
1 | COc1cccc(C2c3cc4c(cc3OC(O)(CO)C2C(=O)O)OCO4)c1.COc1cccc(C2c3cc4c(cc3OC3(O)COC(=O)C23)OCO4)c1 (stereo not drawn) | 82.2 µM (inactive) | 30.6 µM (inactive) | 55.3 µM (inactive) | 26.9 µM (inactive) | 41.5 µM (inactive) | 47.4 µM (inactive) | 14.5 µM (inactive) | > 100 µM (inactive) | 46.1 µM (inactive) | 22.2 µM (inactive) | 37 µM (inactive) | 69.5 µM (inactive) | > 100 µM (inactive) | –
2 | O=c1[nH]c2cc([N+](=O)[O-])ccc2nc1/C(=N/Nc1ccccc1)C(O)c1ccccc1Cl (stereo not drawn) | 41.9 µM (inactive) | > 100 µM (inactive) | > 100 µM (inactive) | > 100 µM (inactive) | > 100 µM (inactive) | – | 28.2 µM (inactive) | > 100 µM (inactive) | > 100 µM (inactive) | 58.6 µM (inactive) | 79.8 µM (inactive) | 59.3 µM (inactive) | 95.5 µM (inactive) | > 100 µM (inactive)
3 | O=S(O)CCCSSCCCCSSCCCS(=O)O | > 100 µM (inactive) | – | > 100 µM (inactive) | > 100 µM (inactive) | > 100 µM (inactive) | > 100 µM (inactive) | 66.8 µM (inactive) | > 100 µM (inactive) | > 100 µM (inactive) | > 100 µM (inactive) | > 100 µM (inactive) | > 100 µM (inactive) | > 100 µM (inactive) | > 100 µM (inactive)
4 | COc1ccc(/C=C2\CCCCC2=O)cc1 | > 100 µM (inactive) | – | > 100 µM (inactive) | > 100 µM (inactive) | – | > 100 µM (inactive) | 41.8 µM (inactive) | – | > 100 µM (inactive) | > 100 µM (inactive) | > 100 µM (inactive) | > 100 µM (inactive) | – | –
5 | CC(=O)N1CCc2[nH]c3ccccc3c2CC1 | > 100 µM (inactive) | 31.5 µM (inactive) | – | > 100 µM (inactive) | > 100 µM (inactive) | > 100 µM (inactive) | 19.9 µM (inactive) | > 100 µM (inactive) | > 100 µM (inactive) | > 100 µM (inactive) | > 100 µM (inactive) | > 100 µM (inactive) | > 100 µM (inactive) | –
6 | CC(=O)OCC1OC(OC2CC3C(C)(C)C(OC(C)=O)CC[C@]3(C)C3CCC45CC4(CC[C@H]5C(C)CC(O)C4OC4(C)C)[C@]23C)C(O)C(O)C1O (stereo partly drawn) | 2.09 µM (inactive) | 2.25 µM (inactive) | 2.29 µM (inactive) | 2.03 µM (inactive) | 1.98 µM (inactive) | 4.72 µM (inactive) | 2.27 µM (inactive) | 1.84 µM (inactive) | 1.34 µM (inactive) | 1.82 µM (inactive) | 1.48 µM (inactive) | 2.58 µM (inactive) | 1.03 µM (active) | 4.06 µM (inactive)
7 | C=CCn1c(=S)sc2c(C(=O)OCC)c3c(C)cc(C)cn3c2c1=O | > 100 µM (inactive) | – | > 100 µM (inactive) | > 100 µM (inactive) | > 100 µM (inactive) | – | 45.4 µM (inactive) | > 100 µM (inactive) | > 100 µM (inactive) | 75.9 µM (inactive) | – | > 100 µM (inactive) | > 100 µM (inactive) | > 100 µM (inactive)
8 | O=[N+]([O-])c1ccc(-c2ccc(/C=N/n3c(S)nnc3-c3ccc(Cl)cc3)o2)cc1 | 28 µM (inactive) | > 42 µM (inactive) | > 49.2 µM (inactive) | 16.6 µM (inactive) | > 57.5 µM (inactive) | > 100 µM (inactive) | 33.3 µM (inactive) | 34.2 µM (inactive) | 17.7 µM (inactive) | 21.6 µM (inactive) | > 38.1 µM (inactive) | 27.9 µM (inactive) | > 100 µM (inactive) | 23 µM (inactive)
9 | COC(=O)C(c1ccc(OC)cc1)N1C(=O)[C@@H](NC(=O)c2ccccc2)[C@H]1[C@@H](C)O (stereo partly drawn) | > 100 µM (inactive) | > 100 µM (inactive) | > 100 µM (inactive) | > 100 µM (inactive) | > 100 µM (inactive) | – | > 100 µM (inactive) | > 100 µM (inactive) | > 100 µM (inactive) | > 100 µM (inactive) | > 100 µM (inactive) | > 100 µM (inactive) | – | > 100 µM (inactive)
10 | [O-]c1c2cc(-[n+]3c(-c4ccccc4)cc(-c4ccccc4)cc3-c3ccccc3)cc1COCCOCCOCCOCCOC2 | 60 µM (inactive) | 26 µM (inactive) | 38.8 µM (inactive) | 18 µM (inactive) | 24 µM (inactive) | – | 41.7 µM (inactive) | 21.7 µM (inactive) | 32.8 µM (inactive) | 38.8 µM (inactive) | 59.4 µM (inactive) | – | > 100 µM (inactive) | 73.5 µM (inactive)
